From publication PMC9782626, “Copper(II) Complexes of 5–Fluoro–Salicylaldehyde: Synthesis, Characterization, Antioxidant Properties, Interaction with DNA and Serum Albumins” (Molecules, 2022)
Read-outs that look alike come from different tables or passages of the source.

Assays:
[1] = DPPH radical scavenging assay; type: biochemical; conditions: compound 0.1 mM
Description: (§1) For the above reasons, the antioxidant ability of 5–F–saloH and Cu(II) complexes 1–5 has been evaluated via their scavenging activity towards DPPH and ABTS radicals, as well as the ability to reduce H2O2, and in comparison with that of well-known antioxidant agents such as nordihydroguaiaretic acid (NDGA), butylated hydroxytoluene (ΒHΤ), 6–hydroxy–2,5,7,8–tetramethylchromane–2–carboxylic acid (trolox) and L–ascorbic acid (these are the most commonly used standard reference antioxidant agents). The DPPH-radical assay was developed in the 1950s and this method has been used to assess the antioxidant capacity of several metal complexes. The DPPH–scavenging ability of compounds has often been related to their ability to prevent ageing, cancer and inflammation. The ability of a compound to scavenge the cationic ABTS radicals (ABTS^+●) has been considered a measure of its total antioxidant activity. Further, hydrogen peroxide has the ability to penetrate biological membranes and, although it is not very reactive itself, it can sometimes be toxic since it may give rise to hydroxyl radicals in cells. For this reason, the removal of H2O2 is very important for the protection of living systems. When a compound is incubated with H2O2 using a peroxidase assay system, the loss of H2O2 can be measured.
(§2) S1 Antioxidant activity assay
(§3) The antioxidant activity of the compounds was evaluated via their ability to scavenge in vitro free radicals such as DPPH and ABTS and to reduce H 2O2. All the experiments were carried out at least in triplicate and the standard deviation of absorbance was less than 10% of the mean.
S1.1 Determination of the reducing activity of the radical DPPH
To an ethanolic solution of DPPH (0.1 mM) an equal volume solution of the compounds (0.1 mM) in ethanol was added. Absolute ethanol was also used as control solution. The absorbance at 517 nm was recorded at room temperature after 30 and 60 min, in order to examine the possible existence of a potential time-dependence of the DPPH radical scavenging act iv ity [S 1]. The DPPH -scavenging activity of the compounds was expressed as the percentage reduction of the absorbance values of the initial DPPH solution ( DPPH%). N DGA and BHT were used as reference comp ounds. […]

[2] = Reduction of hydrogen peroxide; type: biochemical; conditions: compound 0.1 mM, 10 min, pH 7.4
Description: as §1, §2, §3
S1.1 Determination of the reducing activity of the radical DPPH […]
S1.3 Reduction of hydrogen peroxide
The ability of the com pounds to reduce hydrogen peroxide (H2O2) was est imated according to the method descr ibed in the literature [S2]. The reaction mixture contained 20 μL of each of the tested compounds (0.1 mM) and 5 μL H2O 2 solution (40 mM) in phosphate buffer (50 mM, pH = 7.4). The absorbance was measure d at 230 nm after 10 min.
The antioxidant activity (reduction of hydrogen peroxide) of the compounds wa s […]
expressed as the percentage decrease of t he init ial H 2O2 solution (H 2O2%). L-ascor b ic ac id (or vitamin C) was use d as a standard. […]
[DNA] = [DNA] + 1 (eq. S1) […]
where [DNA] is the concentration of DNA in base pa irs, εA = Aobsd/[compound ], εf = the extinction coefficient for the free compound and ε b = the extinction coefficient for the compound in the fully bound form. Kb is given by the ratio of slope to the y intercept in plots [DNA]/(εA-εf) versus[DNA].
S2.2CT DNA -binding studie s by viscosity measurements
The interaction of compounds with DNA has been evaluated via the study of the CT DNA viscosity ([DNA] = 0.1 mΜ) in a buffer solution (150 mM NaCl and 15 mM trisodium citrate at pH 7.0) in the presence of increasing amount of complexes (up to the value of r = 0.36). The obtained data are presented as (η/η 0)1/3 versus r, where η is the viscosity of DNA in the presence of the compound, and η0 is the viscosity of DNA alone in buffer solution.
S2.3 EB -displa cement studie s
The competition of the complexes with EB was investigated by fluorescence emission spectroscopy in order to examine whether the compounds can displace EB from its DNA-EB conjugate. The CT DNA-EB complex was formed by pre-treating 20 μM EB and 26 μM CT DNA in buffer (150 mM NaCl and 15 mM trisodium citrate at pH = 7.0).
The possible displacement of EB by the compounds and su bseq uently t he ir intercalating effect was studied by the stepwise addition of a certain amount of the solution of each

[3] = ABTS radical cation scavenging assay; type: biochemical; conditions: compound 0.1 mM, 1 min
Description: as §1, §2
The antioxidant activity of the compounds was evaluated via their ability to scavenge in vitro free radicals such as DPPH and ABTS and to reduce H 2O2. All the experiments were carried out at least in triplicate and the standard deviation of absorbance was less than 10% of the mean. […]
S1.2 Assay of radical cation ABTS-scavengin g activity
The ABTS assay was performed to determine the activity of the compounds to scavenge the radical cation ABTS. Initially, a water solution of ABTS was prepared (2 mM). ABTS radical cation (ABTS+·) was produced by the reaction of ABTS stock solution with potassium persulfate (0.17 mM) and the mixture was stored in the dark at room temperature for 12-16 h before its use. The ABTS was oxidized incompletely because the stoichiometric reaction ratio of ABTS and potassium persulfate is 1:0.5. The absorbance became maximal and stable only after more than 6 h of reaction although the oxidation of the ABTS started immediately. The radical was stable in this form for more than 2 days when allowed to stand in the dark at room temperature. Afterwards, the ABTS+· solution was diluted in ethanol to an absorbance of 0.70 at 734 nm and 10 μL of diluted compounds or standards (0.1 mM) in DMSO were added. The absorbance was recorded out exactly 1 min after init ial m ix in g [S 1]. The ABTS radical scavenging act ivit y was expressed as the percentage inhibition of the absorbance of the initial ABTS solution (ABTS%). Trolox was used as an appropriate standard. […]

[4] = parameters: method as in PMID 35890184; conditions: cited from earlier work
[5] = parameters: method as in PMID 35890184; conditions: cited from earlier work; remark: listed apart in the source
[6] = parameters: method as in PMID 35890184; conditions: cited from earlier work; remark: listed apart in the source
CT DNA = conditions: cited from earlier work
[7] = test system: EB–DNA conjugate (CT DNA); parameters: method as in PMID 35890184; conditions: cited from earlier work
[8] = biological target: T1, bovine serum albumin (BSA) (Bos taurus, UniProt P02769); parameters: method as in PMID 35890184; conditions: cited from earlier work
T1 construct: purchased Sigma–Aldrich Co

[9] = biological target: T2, human serum albumin (HSA) (Homo sapiens, UniProt P02768); parameters: method as in PMID 35890184; conditions: cited from earlier work
T2 construct: purchased Sigma–Aldrich Co
T2 sequence (P02768 25-609): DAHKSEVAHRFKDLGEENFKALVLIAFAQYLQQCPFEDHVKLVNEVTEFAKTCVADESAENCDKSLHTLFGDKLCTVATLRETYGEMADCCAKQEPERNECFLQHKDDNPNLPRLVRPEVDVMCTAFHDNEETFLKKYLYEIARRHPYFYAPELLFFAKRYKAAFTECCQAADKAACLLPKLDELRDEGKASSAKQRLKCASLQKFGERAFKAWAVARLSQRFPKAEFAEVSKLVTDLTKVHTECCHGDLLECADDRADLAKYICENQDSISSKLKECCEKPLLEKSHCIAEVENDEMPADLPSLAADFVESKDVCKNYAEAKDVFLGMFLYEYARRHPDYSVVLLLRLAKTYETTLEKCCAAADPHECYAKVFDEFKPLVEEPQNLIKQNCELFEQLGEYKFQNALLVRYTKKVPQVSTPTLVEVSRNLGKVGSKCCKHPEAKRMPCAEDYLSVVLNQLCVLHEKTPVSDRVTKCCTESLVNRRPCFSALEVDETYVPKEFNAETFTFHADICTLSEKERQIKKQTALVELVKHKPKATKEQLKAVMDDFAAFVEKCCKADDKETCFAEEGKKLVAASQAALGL

T1 sequence (P02769 25-607): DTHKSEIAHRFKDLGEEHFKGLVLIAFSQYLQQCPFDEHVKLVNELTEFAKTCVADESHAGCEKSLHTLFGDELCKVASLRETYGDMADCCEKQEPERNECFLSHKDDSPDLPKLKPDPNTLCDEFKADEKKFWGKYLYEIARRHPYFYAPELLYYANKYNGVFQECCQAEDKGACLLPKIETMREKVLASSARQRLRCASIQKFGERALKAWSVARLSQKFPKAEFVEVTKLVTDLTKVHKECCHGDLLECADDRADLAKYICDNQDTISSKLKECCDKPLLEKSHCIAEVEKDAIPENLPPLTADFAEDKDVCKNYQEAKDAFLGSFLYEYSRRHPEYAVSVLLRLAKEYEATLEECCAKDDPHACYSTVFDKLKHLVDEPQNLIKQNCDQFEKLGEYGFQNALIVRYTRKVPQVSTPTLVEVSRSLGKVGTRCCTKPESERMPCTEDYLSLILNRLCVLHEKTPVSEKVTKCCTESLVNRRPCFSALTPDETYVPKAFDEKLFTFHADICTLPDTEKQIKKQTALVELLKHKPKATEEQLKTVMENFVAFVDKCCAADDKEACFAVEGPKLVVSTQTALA

Q: Which “DPPH% (30 min), % DPPH–scavenging ability” value [1] does the source give for Cc1cc(C(C)(C)C)c(O)c(C(C)(C)C)c1 [BHT, butylated hydroxytoluene, reference compound] here?
A: 61.30 ± 1.16%

Q: What about the “DPPH% (60 min), % DPPH–scavenging ability” value [1] of the same compound?
A: 79.78 ± 1.12%

Q: With O=C1O[C@H]([C@@H](O)CO)C(O)=C1O [L–ascorbic acid, reference compound] as the compound, how does the “H2O2%, H2O2–reducing activity” value [2] read?
A: 60.80 ± 0.20%

Q: For Cc1c(C)c2c(c(C)c1O)CCC(C)(C(=O)O)O2 (stereo not drawn) [Trolox, 6–hydroxy–2,5,7,8–tetramethylchromane–2–carboxylic acid, reference compound], which “ABTS%, % ABTS–scavenging activity” value [3] is on record?
A: 98.10 ± 0.48%

Q: Which results are given for CC(Cc1ccc(O)c(O)c1)C(C)Cc1ccc(O)c(O)c1 (stereo not drawn) [NDGA, nordihydroguaiaretic acid, reference compound]?
A: DPPH% (30 min), % DPPH–scavenging ability [1]: 87.08 ± 0.12%; DPPH% (60 min), % DPPH–scavenging ability [1]: 87.47 ± 0.12%

Q: Which results are given for O=Cc1cc(F)ccc1O [5–F–saloH, 5–fluoro–salicylaldehyde]?
A: DPPH% (30 min), % DPPH–scavenging ability ([4]; 30 min): 3.96 ± 1.16%; DPPH% (60 min), % DPPH–scavenging ability ([4]; 60 min): 5.56 ± 1.06%; ABTS%, % ABTS–scavenging activity [5]: 19.57 ± 0.58%; H2O2%, H2O2–reducing activity [6]: 71.84 ± 0.95%; ΔA/Aο, percentage of hyper-/hypo-chromism upon addition of CT DNA (CT DNA; band at 334 nm): −30%; ΔA/Aο, percentage of hyper-/hypo-chromism upon addition of CT DNA (CT DNA; band at 421 nm): > +50%; EB–DNA quenching constant kq [7]: 1.73 (±0.05) × 10^12 M^−1 s^−1; Stern–Volmer constant Ksv (EB–DNA) [7]: 3.79 (±0.11) × 10^4 M^−1; ΔΙ/Ιο, percentage of EB–DNA fluorescence quenching [7]: 51.3%; EB–DNA relative fluorescence emission intensity I/Io remaining (% of initial) ([7]; λemission = 592 nm, final value): 48.7%; BSA-binding constant K [8]: 4.31 (±0.31) × 10^4 M^−1; BSA-quenching constant kq [8]: 1.98 (±0.08) × 10^12 M^−1 s^−1; ΔΙ/Ιο, quenching of the BSA fluorescence [8]: 25.7%; % relative BSA fluorescence emission intensity I/Io remaining (% of initial) ([8]; final value): 74.3%; HSA-binding constant K [9]: 4.65 (±0.35) × 10^4 M^−1; HSA-quenching constant kq [9]: 1.96 (±0.07) × 10^12 M^−1 s^−1; ΔΙ/Ιο, quenching of the HSA fluorescence [9]: 25.7%; % relative HSA fluorescence emission intensity I/Io remaining (% of initial) ([9]; final value): 74.3%
